Measured values from patent US9247759B2, “Identification of human T2R receptors that respond to bitter compounds that elicit the bitter taste in compositions, and the use thereof in assays to identify compounds that inhibit (block) bitter taste in compositions and use thereof” (SENOMYX, INC., priority 2007, dated 2016).
pIC50: −log10 of the molar value. Like-named read-outs stand apart in the source and are kept apart here.

Experiments:
[1] = target: T1, hT2R14 (Homo sapiens (Human), UniProt Q9NYV8); assay: hT2R14 antagonist high-throughput FLIPR assay, stable cell line with G16g44, agonist aristolochic acid; assay type: cell-based; conditions: read-out: IC50 on hT2R14 bitter receptor
T1 sequence (Q9NYV8 whole entry): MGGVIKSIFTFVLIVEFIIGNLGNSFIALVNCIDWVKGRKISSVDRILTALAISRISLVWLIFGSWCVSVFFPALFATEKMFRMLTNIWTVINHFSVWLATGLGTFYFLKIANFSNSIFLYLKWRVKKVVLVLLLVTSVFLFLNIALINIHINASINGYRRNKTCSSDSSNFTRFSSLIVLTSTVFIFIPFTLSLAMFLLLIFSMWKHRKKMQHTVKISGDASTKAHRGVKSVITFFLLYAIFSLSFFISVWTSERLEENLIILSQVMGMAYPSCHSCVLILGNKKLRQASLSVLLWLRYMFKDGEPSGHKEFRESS
Procedure, shortened: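 HEK293 cells stably expressing hT2R14 with chimeric G16g44 were stimulated with aristolochic acid (3 μM), giving 70-80% of maximal receptor activity. Test compounds were added together with the agonist, and antagonism was read as fluorescent calcium signal on FLIPR.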

[2] = test system: hT2R63; assay: hT2R panel inhibition, transient HEK293 G16g44, agonist Caffeine 1 mM or Andrographolide 100 μM; assay type: cell-based, human; conditions: compound at 25 μM; for inhibition of bitter receptor 63: receptor activated to EC80 with agonist
Procedure, shortened: (§1)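 Transfect one hT2R per well set; stimulate with agonist at EC80; add test compound; record reduction of functional response as inhibition.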

[3] = target: T1, hT2R14; assay: hT2R panel inhibition, transient HEK293 G16g44, agonist Aristolochic Acid 2 μM; assay type: cell-based; conditions: HEK293, compound at 25 μM
Procedure, shortened: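 Each hT2R was transiently transfected into HEK293 cells stably expressing G16g44 and assayed functionally for inhibition of agonist response. Agonists were applied at EC80: andrographolide at 0.5 mM for hT2R8 and aristolochic acid at 2 μM for hT2R14.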

[4] = target: hT2R7 (Homo sapiens (Human), UniProt Q9NYW3); assay: hT2R panel inhibition, transient HEK293 G16g44, agonist Chloroquine pH6.5 10 mM; assay type: cell-based; conditions: HEK293, compound at 25 μM
hT2R7, sequence (Q9NYW3 whole entry): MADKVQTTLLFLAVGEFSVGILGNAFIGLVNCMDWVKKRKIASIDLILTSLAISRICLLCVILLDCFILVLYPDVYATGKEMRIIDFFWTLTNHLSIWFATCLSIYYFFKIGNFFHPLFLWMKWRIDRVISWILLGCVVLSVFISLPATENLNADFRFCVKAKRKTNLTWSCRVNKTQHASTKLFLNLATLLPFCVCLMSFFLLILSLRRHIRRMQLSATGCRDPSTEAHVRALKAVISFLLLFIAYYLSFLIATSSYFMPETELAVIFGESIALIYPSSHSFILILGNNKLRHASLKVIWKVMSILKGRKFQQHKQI
Procedure, shortened: as §1

[5] = target: hT2R61 (Homo sapiens (Human), UniProt P59537); assay: hT2R panel inhibition, transient HEK293 G16g44, agonist Aristolochic Acid 25 nM; assay type: cell-based; conditions: HEK293, compound at 25 μM
hT2R61, sequence (P59537 whole entry): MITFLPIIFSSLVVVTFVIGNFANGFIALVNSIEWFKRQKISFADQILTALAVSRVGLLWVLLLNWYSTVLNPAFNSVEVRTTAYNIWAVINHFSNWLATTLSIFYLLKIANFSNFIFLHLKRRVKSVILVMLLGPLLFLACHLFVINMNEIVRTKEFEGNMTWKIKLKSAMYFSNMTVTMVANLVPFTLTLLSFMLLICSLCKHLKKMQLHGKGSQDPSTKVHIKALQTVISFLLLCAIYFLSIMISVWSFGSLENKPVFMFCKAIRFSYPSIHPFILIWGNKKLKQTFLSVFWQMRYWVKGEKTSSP
Procedure, shortened: as §1

[6] = target: hT2R13 (Homo sapiens (Human), UniProt Q9NYV9); assay: hT2R panel inhibition, transient HEK293 G16g44, agonist Oxyphenonium 1 mM; assay type: cell-based; conditions: HEK293, compound at 25 μM
hT2R13, sequence (Q9NYV9 whole entry): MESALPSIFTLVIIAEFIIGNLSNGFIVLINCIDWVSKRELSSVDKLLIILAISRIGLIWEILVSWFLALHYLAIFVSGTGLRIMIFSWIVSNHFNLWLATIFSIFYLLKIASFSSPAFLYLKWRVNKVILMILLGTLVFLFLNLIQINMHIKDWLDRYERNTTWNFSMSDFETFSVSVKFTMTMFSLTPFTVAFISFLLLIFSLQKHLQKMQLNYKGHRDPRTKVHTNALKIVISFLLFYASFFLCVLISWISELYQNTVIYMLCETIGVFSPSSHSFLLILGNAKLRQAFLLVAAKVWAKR
Protocol: Specifically, in order to evaluate the inhibitory selectivity of the Compound C compound, this compound was tested against 22 human T2Rs which were deorphaned by Senomyx. These receptors and the bitter ligands that activate these human T2Rs are reported in earlier patent applications which are incorporated by reference herein. These 22 human T2Rs are hT2R1, 3, 4, 5, 7, 8, 9, 10, 13, 14, 16, 44, 51, 54, 55, 61, 63, 64, 65, 67, 71 and 75. The amino acid and nucleic acid sequences of all of these T2Rs may be found in these earlier patent applications. These human T2Rs were each individually transiently transfected into HEK293 cells that stably express the promiscuous G protein G16g44 and functional assays were effected using these receptors as disclosed in these same patent applications. […] The ligands were used at EC80 concentration levels. The list of bitter ligands utilized and the tested ligand concentrations are contained in Table 5 of this example.
Relating to the foregoing, FIG. 5 contains experimental results wherein Compound C was tested with different agonist compounds. The inhibition activity is represented by the reduction of receptor activity in the presence of Compound C. […] These 13 hT2Rs are hT2R3, 7, 10, 14, 16, 44, 51, 55, 61, 63, 64, 65, and 71.

[7] = target: hT2R9 (Homo sapiens (Human), UniProt Q9NYW1); assay: hT2R panel inhibition, transient HEK293 G16g44, agonist Ofloxacin 1 mM; assay type: cell-based; conditions: HEK293, compound at 25 μM; receptor activated to EC80 with agonist; read-out: inhibition of bitter receptor 9
hT2R9, sequence (Q9NYW1 whole entry): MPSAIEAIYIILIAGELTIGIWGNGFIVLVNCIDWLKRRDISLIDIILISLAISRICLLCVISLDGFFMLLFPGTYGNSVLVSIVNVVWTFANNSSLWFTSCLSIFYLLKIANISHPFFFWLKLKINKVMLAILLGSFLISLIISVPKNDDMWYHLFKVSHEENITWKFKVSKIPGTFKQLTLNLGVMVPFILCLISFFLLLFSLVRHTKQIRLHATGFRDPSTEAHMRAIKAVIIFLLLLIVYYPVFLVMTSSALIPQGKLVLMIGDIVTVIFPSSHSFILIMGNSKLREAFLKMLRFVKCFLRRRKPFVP
Procedure, shortened: as §1

[8] = test system: hT2R44; assay: hT2R panel inhibition, transient HEK293 G16g44, agonist Denatonium 0.5 μM; assay type: cell-based, human; conditions: compound at 25 μM; for inhibition of bitter receptor 44: receptor activated to EC80 with agonist
Procedure, shortened: as §1

[9] = target: hT2R51 (Homo sapiens (Human), UniProt P59533); assay: hT2R panel inhibition, transient HEK293 G16g44, agonist Prop 2.5 μM; assay type: cell-based; conditions: HEK293, compound at 25 μM
hT2R51, sequence (P59533 whole entry): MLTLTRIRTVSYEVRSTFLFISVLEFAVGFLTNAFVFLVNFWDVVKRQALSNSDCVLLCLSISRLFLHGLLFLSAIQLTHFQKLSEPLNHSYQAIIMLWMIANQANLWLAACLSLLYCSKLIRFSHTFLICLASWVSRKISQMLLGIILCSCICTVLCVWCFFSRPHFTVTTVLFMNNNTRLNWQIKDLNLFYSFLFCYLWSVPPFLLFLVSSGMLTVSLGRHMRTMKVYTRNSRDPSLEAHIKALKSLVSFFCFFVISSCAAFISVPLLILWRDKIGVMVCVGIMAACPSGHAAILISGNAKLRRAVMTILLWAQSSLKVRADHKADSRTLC
Procedure, shortened: as §1

[10] = target: hT2R64 (Homo sapiens (Human), UniProt P59538); assay: hT2R panel inhibition, transient HEK293 G16g44, agonist Aristolochic Acid 1 μM; assay type: cell-based; conditions: HEK293, compound at 25 μM
hT2R64, sequence (P59538 whole entry): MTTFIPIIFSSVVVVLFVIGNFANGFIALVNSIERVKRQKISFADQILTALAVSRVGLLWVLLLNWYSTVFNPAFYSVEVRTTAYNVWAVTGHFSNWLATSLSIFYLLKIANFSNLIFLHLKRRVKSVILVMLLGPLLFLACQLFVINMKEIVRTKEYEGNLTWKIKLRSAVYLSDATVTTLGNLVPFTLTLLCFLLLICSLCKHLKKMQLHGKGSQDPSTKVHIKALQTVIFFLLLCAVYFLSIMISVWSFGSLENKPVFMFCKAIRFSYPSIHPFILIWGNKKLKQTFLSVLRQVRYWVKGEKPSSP
Procedure, shortened: as §1

[11] = target: hT2R16 (Homo sapiens (Human), UniProt Q9NYV7); assay: hT2R panel inhibition, transient HEK293 G16g44, agonist Salicin 1 mM; assay type: cell-based; conditions: HEK293, compound at 25 μM
hT2R16, sequence (Q9NYV7 whole entry): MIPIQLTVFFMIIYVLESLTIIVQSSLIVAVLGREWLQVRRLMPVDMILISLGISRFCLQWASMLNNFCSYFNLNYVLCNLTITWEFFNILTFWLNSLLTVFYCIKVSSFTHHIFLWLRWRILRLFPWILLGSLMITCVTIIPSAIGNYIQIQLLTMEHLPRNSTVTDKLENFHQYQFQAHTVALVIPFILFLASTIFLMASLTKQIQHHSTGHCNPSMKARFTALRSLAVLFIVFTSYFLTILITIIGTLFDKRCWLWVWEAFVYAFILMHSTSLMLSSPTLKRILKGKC
Procedure, shortened: as §1

[12] = test system: hT2R67; assay: hT2R panel inhibition, transient HEK293 G16g44, agonist Andrographolide 5 μM; assay type: cell-based, human; conditions: compound at 25 μM
Procedure, shortened: as §1

[13] = target: hT2R75 (Homo sapiens (Human), UniProt P59540); assay: hT2R panel inhibition, transient HEK293 G16g44, agonist Strychnine 1 μM; assay type: cell-based; conditions: HEK293, read-out: screening result against bitter receptor 75, compound at 25 μM; receptor activated to EC80 with the corresponding agonist
hT2R75, sequence (P59540 whole entry): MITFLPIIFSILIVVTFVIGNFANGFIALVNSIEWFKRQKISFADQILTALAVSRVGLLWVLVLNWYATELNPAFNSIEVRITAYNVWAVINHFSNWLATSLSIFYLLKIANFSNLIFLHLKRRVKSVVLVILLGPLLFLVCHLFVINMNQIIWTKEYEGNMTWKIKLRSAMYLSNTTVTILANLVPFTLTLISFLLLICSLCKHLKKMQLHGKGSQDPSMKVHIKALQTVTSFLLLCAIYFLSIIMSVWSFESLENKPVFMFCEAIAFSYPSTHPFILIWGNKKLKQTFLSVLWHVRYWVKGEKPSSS

[14] = test system: hT2R65; assay: hT2R panel inhibition, transient HEK293 G16g44, agonist Oleuropein 1 mM; assay type: cell-based, human; conditions: compound at 25 μM
Procedure, shortened: as §1

[15] = target: hT2R3 (Homo sapiens (Human), UniProt Q9NYW6); assay: hT2R panel inhibition, transient HEK293 G16g44, agonist Chloroquine pH6.5 50 μM; assay type: cell-based; conditions: HEK293, compound at 25 μM
hT2R3, sequence (Q9NYW6 whole entry): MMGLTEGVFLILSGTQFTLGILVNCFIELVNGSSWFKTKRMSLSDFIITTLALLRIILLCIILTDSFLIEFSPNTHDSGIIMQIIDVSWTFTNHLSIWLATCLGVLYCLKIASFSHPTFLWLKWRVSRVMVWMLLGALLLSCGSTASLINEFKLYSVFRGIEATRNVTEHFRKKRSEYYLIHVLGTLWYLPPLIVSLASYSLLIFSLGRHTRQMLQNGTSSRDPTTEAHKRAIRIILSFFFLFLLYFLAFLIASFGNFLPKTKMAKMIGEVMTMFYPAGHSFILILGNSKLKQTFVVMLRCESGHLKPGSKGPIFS
Procedure, shortened: as §1

[16] = target: hT2R10 (Homo sapiens (Human), UniProt Q9NYW0); assay: hT2R panel inhibition, transient HEK293 G16g44, agonist Strychnine 50 μM; assay type: cell-based
hT2R10, sequence (Q9NYW0 whole entry): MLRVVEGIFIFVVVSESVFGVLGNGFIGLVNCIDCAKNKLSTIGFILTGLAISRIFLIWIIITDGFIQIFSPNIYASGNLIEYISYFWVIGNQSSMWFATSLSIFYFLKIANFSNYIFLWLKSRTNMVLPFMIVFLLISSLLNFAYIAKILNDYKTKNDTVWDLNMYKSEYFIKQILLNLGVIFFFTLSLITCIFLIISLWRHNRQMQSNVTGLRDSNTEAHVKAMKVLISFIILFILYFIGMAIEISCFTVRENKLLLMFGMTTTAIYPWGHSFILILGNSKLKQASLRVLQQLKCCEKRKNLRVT

[17] = test system: hT2R54; assay: hT2R panel inhibition, transient HEK293 G16g44, agonist Ranitidine 5 mM; assay type: cell-based, human; conditions: compound at 25 μM
Procedure, shortened: as §1

[18] = target: hT2R71 (Homo sapiens (Human), UniProt P59536); assay: hT2R panel inhibition, transient HEK293 G16g44, agonist Picric Acid 10 μM; assay type: cell-based; conditions: HEK293, compound at 25 μM
hT2R71, sequence (P59536 whole entry): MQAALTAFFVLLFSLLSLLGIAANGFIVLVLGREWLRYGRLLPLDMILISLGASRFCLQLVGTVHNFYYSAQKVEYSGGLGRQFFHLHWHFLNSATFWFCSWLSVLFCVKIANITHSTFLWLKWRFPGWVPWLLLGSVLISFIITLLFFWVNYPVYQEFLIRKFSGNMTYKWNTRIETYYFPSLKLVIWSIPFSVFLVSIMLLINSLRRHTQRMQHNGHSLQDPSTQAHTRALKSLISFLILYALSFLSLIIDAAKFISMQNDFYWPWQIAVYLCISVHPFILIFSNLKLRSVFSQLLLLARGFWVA
Procedure, shortened: as §1

[19] = target: hT2R5 (Homo sapiens (Human), UniProt Q9NYW4); assay: hT2R panel inhibition, transient HEK293 G16g44, agonist Picoline 10 mM; assay type: cell-based; conditions: HEK293, compound at 25 μM; receptor activated to EC80 with the corresponding agonist; read-out: screening result against bitter receptor 5
hT2R5, sequence (Q9NYW4 whole entry): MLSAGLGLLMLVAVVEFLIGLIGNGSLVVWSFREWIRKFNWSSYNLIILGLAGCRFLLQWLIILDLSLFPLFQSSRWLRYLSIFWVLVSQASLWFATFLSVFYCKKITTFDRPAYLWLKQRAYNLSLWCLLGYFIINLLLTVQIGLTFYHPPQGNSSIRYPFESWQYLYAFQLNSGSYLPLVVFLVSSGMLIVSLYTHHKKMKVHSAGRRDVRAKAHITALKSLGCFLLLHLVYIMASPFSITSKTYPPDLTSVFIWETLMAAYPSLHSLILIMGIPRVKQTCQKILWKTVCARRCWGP
Procedure, shortened: as §1

[20] = test system: hT2R55; assay: hT2R panel inhibition, transient HEK293 G16g44, agonist Cinchonine 150 μM; assay type: cell-based, human; conditions: compound at 25 μM
Procedure, shortened: as §1

[21] = target: hT2R4 (Homo sapiens (Human), UniProt Q9NYW5); assay: hT2R panel inhibition, transient HEK293 G16g44, agonist Chloroquine pH6.5 5 mM; assay type: cell-based; conditions: HEK293, compound at 25 μM; receptor activated to EC80 with agonist; read-out: inhibition of bitter receptor 4
hT2R4, sequence (Q9NYW5 whole entry): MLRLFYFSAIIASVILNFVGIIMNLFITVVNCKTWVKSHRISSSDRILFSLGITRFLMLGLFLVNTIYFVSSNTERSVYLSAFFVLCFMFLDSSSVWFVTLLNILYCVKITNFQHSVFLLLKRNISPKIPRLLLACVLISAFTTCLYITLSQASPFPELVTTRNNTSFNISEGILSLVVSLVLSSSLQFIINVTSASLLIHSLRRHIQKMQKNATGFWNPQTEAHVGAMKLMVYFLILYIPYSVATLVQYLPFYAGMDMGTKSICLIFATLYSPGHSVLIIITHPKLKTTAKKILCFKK
Procedure, shortened: as §1

[22] = receptor activated to EC80 with agonist, read-out: inhibition of bitter receptor 14
[23] = receptor activated to EC80 with agonist, read-out: inhibition of bitter receptor 7
[24] = receptor activated to EC80 with agonist, read-out: inhibition of bitter receptor 61
[25] = receptor activated to EC80 with agonist, read-out: inhibition of bitter receptor 13
[26] = receptor activated to EC80 with the corresponding agonist
[27] = receptor activated to EC80 with agonist

In the case of Cn1c(=O)c(=O)n(C)c2cc(S(=O)(=O)Nc3ccc(Cc4ccccn4)cc3)ccc21 [Example 6-4, 1,4-dimethyl-2,3-dioxo-N-(4-(pyridin-2-ylmethyl)phenyl)-1,2,3,4-tetrahydroquinoxaline-6-sulfonamide], the pIC50 [1] was 5.21, the “inhibition of bitter receptor 63” value [2] was “+ (20% to 40% inhibition = +)” and the inhibition at 25 µM [3, 22] was > 80%. For the same molecule, the inhibition at 25 µM [4, 23] was 20 to 40%, the inhibition at 25 µM [5, 24] was 20 to 40% and the inhibition at 25 µM [6, 25] was > 80%. The inhibition at 25 µM [7] was 20 to 40% and the “inhibition of bitter receptor 44” value [8] was “+ (20% to 40% inhibition = +)”.
In the case of O=C(O)c1ccc(S(=O)(=O)N(Cc2ccccc2)Cc2ccco2)cc1 [Example 5-5, 4-(N-benzyl-N-(furan-2-ylmethyl)sulfamoyl)benzoic acid], the pIC50 [1] was 5.34, the “screening result against bitter receptor 63” value [2, 26] was “++++ (80% or greater inhibition = ++++)” and the inhibition at 25 µM ([3]; receptor activated to EC80 with the corresponding agonist, read-out: screening result against bitter receptor 14) was > 80%. For the same molecule, the inhibition at 25 µM ([9]; receptor activated to EC80 with the corresponding agonist, read-out: screening result against bitter receptor 51) was 20 to 40%, the inhibition at 25 µM ([4]; receptor activated to EC80 with the corresponding agonist, read-out: screening result against bitter receptor 7) was 40 to 60% and the inhibition at 25 µM ([10]; receptor activated to EC80 with the corresponding agonist, read-out: screening result against bitter receptor 64) was 60 to 80%. For the same molecule, the inhibition at 25 µM ([11]; receptor activated to EC80 with the corresponding agonist, read-out: screening result against bitter receptor 16) was 40 to 60%, the inhibition at 25 µM ([5]; receptor activated to EC80 with the corresponding agonist, read-out: screening result against bitter receptor 61) was > 80% and the “screening result against bitter receptor 67” value [12, 26] was “+ (20% to 40% inhibition = +)”. The inhibition at 25 µM [13] was 20 to 40%, the “screening result against bitter receptor 65” value [14, 26] was “+ (20% to 40% inhibition = +)” and the inhibition at 25 µM ([15]; receptor activated to EC80 with the corresponding agonist, read-out: screening result against bitter receptor 3) was 40 to 60%. For the same molecule, the inhibition at 25 µM ([16]; HEK293, read-out: screening result against bitter receptor 10, compound at 25 μM, receptor activated to EC80 with the corresponding agonist) was 20 to 40%, the “screening result against bitter receptor 54” value [17, 26] was “+ (20% to 40% inhibition = +)” and the inhibition at 25 µM ([6]; receptor activated to EC80 with the corresponding agonist, read-out: screening result against bitter receptor 13) was 20 to 40%. For the same molecule, the inhibition at 25 µM ([18]; receptor activated to EC80 with the corresponding agonist, read-out: screening result against bitter receptor 71) was 60 to 80%, the inhibition at 25 µM [19] was 20 to 40% and the “screening result against bitter receptor 55” value [20, 26] was “++++ (80% or greater inhibition = ++++)”. The “screening result against bitter receptor 44” value [8, 26] was “++ (40% to 60% inhibition = ++)”.
In the case of CCCOc1ccc(CN(Cc2ccccc2)S(=O)(=O)c2ccc(C(=O)O)cc2)cc1 [Example 5-109, 4-(N-benzyl-N-(4-propoxybenzyl)sulfamoyl)benzoic acid], the “inhibition of bitter receptor 63” value [2] was “++ (40% to 60% inhibition = ++)”, the inhibition at 25 µM [3, 22] was > 80% and the inhibition at 25 µM ([9]; receptor activated to EC80 with agonist, read-out: inhibition of bitter receptor 51) was 40 to 60%. The inhibition at 25 µM [4, 23] was 20 to 40%, the inhibition at 25 µM ([10]; receptor activated to EC80 with agonist, read-out: inhibition of bitter receptor 64) was > 80% and the inhibition at 25 µM ([11]; receptor activated to EC80 with agonist, read-out: inhibition of bitter receptor 16) was 20 to 40%. The inhibition at 25 µM [5, 24] was 60 to 80%, the “inhibition of bitter receptor 67” value [12, 27] was “+ (20% to 40% inhibition = +)” and the “inhibition of bitter receptor 65” value [14, 27] was “+++ (60% to 80% inhibition = +++)”. The inhibition at 25 µM ([15]; receptor activated to EC80 with agonist, read-out: inhibition of bitter receptor 3) was 40 to 60%, the inhibition at 25 µM ([16]; HEK293, read-out: inhibition of bitter receptor 10, compound at 25 μM, receptor activated to EC80 with agonist) was 40 to 60% and the “inhibition of bitter receptor 54” value [17, 27] was “+ (20% to 40% inhibition = +)”. For the same molecule, the inhibition at 25 µM [6, 25] was 20 to 40%, the inhibition at 25 µM ([18]; receptor activated to EC80 with agonist, read-out: inhibition of bitter receptor 71) was 60 to 80% and the “inhibition of bitter receptor 55” value [20, 27] was “++++ (80% or greater inhibition = ++++)”. For the same molecule, the “inhibition of bitter receptor 44” value [8] was “++ (40% to 60% inhibition = ++)” and the inhibition at 25 µM [21] was 40 to 60%.
